Tests used:
SK-MEL-28 [1] = assay: Induction of apoptosis in human SK-MEL-28 cells assessed as increase in caspase-3/7 activity measured up to 48 hrs in presence of 0.1 ng/mL TNFlpha by IncuCyteS3 caspase-3/7 fluorescence-based apoptosis assay; type: functional, cell-based; settings: dose 0.1-10 µM, DDE = dose-dependent effect
SK-MEL-28 [2] = assay: Induction of apoptosis in human SK-MEL-28 cells assessed as increase in caspase-3/7 activity at 0.1 to 10 uM in presence of 0.1 ng/mL TNFlpha by IncuCyteS3 caspase-3/7 fluorescence-based apoptosis assay; type: functional, cell-based; settings: dose 0.1-10 µM, time <= 48.0 hrs, TDE = time-dependent effect
Homo sapiens = organism: Homo sapiens; assay: Binding affinity to N-terminal His-tagged ML-IAP K135A mutant (63 to 179 residues) (unknown origin) expressed in Escherichia coli BL21 assessed as change in melting temperature at 20 uM incubated for 2 hrs followed by heating at 40 to 70 degree C for 30 mins by SYPRO orange dye based thermal shift assay; settings: time 150.0 min
[3] = biological target: E3 ubiquitin-protein ligase XIAP (Homo sapiens, UniProt P98170); assay: Antagonist activity at N-terminal His-tagged XIAP-BIR3 domain (253 to 347 residues)(unknown origin) expressed in Escherichia coli BL21 using AVPIAQKSEK-biotinylated peptide as substrate incubated for 2 hrs by DELFIA assay
E3 ubiquitin-protein ligase XIAP, sequence (P98170 whole entry, the tested form may be a part): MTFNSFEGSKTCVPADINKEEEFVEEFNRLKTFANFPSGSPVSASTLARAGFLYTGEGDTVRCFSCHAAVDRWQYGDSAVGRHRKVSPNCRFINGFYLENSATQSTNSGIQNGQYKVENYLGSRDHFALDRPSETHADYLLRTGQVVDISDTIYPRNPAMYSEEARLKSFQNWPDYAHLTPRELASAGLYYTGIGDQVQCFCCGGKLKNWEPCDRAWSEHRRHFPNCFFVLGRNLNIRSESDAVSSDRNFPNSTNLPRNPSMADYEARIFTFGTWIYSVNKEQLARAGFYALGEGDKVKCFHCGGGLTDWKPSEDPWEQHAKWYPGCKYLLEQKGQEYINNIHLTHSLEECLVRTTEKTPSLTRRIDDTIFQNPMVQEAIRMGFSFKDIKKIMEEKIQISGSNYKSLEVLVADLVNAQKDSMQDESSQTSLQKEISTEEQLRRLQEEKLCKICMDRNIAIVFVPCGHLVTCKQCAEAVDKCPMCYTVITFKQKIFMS

[4] = biological target: Baculoviral IAP repeat-containing protein 2 (Homo sapiens, UniProt Q13490); assay: Antagonist activity at N-terminal His-tagged cIAP1-BIR3 domain (unknown origin) expressed in Escherichia coli BL21 using AVPIAQKSEK-biotinylated peptide as substrate incubated for 2 hrs by DELFIA assay
Baculoviral IAP repeat-containing protein 2, sequence (Q13490 whole entry, the tested form may be a part): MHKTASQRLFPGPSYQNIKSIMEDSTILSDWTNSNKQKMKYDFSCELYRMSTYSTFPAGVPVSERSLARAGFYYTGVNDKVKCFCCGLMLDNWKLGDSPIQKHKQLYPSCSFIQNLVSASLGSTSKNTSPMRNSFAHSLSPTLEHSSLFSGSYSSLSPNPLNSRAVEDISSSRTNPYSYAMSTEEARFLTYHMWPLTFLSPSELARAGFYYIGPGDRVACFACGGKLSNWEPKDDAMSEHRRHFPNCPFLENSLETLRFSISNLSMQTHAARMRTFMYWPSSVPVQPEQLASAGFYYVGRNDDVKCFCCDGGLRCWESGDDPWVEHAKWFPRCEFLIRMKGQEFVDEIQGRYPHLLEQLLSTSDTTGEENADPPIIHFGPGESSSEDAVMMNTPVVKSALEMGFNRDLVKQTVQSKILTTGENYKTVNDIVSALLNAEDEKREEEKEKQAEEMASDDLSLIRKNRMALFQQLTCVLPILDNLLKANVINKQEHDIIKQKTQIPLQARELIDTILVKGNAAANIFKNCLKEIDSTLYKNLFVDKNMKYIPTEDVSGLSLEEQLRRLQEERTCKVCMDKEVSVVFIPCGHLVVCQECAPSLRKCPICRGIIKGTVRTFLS

[5] = biological target: T1, Baculoviral IAP repeat-containing protein 7 (Homo sapiens, UniProt Q96CA5); assay: Antagonist activity at N-terminal His-tagged wild type ML-IAP BIR domain (63 to 179 residues) (unknown origin) expressed in Escherichia coli BL21 using AVPIAQKSEK-biotinylated peptide as substrate incubated for 2 hrs by DELFIA assay
T1 sequence (Q96CA5 whole entry): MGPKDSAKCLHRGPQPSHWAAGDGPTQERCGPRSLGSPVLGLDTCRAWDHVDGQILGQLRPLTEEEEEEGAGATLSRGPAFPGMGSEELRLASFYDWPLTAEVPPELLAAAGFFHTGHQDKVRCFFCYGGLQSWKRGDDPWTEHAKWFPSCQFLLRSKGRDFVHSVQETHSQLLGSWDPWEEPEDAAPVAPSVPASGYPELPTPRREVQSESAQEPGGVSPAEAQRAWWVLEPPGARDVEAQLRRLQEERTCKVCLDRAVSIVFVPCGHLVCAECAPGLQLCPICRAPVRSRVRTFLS

[6] = biological target: Baculoviral IAP repeat-containing protein 3 (Homo sapiens, UniProt Q13489); assay: Antagonist activity at N-terminal His-tagged cIAP2-BIR3 domain (unknown origin) expressed in Escherichia coli BL21 using AVPIAQKSEK-biotinylated peptide as substrate incubated for 2 hrs by DELFIA assay
Baculoviral IAP repeat-containing protein 3, sequence (Q13489 whole entry, the tested form may be a part): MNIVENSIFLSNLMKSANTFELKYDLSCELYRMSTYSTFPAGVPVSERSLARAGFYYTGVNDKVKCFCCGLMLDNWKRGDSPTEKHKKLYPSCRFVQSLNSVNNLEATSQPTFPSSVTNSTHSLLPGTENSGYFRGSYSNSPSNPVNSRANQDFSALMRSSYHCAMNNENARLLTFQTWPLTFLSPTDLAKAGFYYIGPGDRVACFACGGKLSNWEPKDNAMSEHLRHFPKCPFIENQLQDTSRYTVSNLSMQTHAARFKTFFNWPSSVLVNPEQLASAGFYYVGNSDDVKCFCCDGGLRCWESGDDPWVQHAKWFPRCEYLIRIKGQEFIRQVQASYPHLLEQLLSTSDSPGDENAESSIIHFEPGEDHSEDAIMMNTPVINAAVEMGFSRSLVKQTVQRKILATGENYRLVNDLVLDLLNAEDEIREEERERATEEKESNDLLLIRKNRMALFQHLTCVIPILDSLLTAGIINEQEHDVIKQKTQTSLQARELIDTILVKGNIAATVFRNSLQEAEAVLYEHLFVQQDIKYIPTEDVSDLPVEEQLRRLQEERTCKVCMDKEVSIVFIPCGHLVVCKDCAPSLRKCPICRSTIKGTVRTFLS

[7] = biological target: T1, Baculoviral IAP repeat-containing protein 7; assay: Antagonist activity at N-terminal His-tagged wild type ML-IAP BIR domain (63 to 179 residues)(unknown origin) expressed in Escherichia coli BL21 using AVPIAQKSEK-biotinylated peptide as substrate preincubated for 2 hrs with protein followed by substrate addition measured after 2 hrs by DELFIA assay
[8] = biological target: T2, Baculoviral IAP repeat-containing protein 7 (Homo sapiens) (UniProt Q96CA5); settings: dose 20.0 µM, time 150.0 min
T2 sequence (whole entry): T1 sequence (Q96CA5 whole entry)

Compound | Activity (SK-MEL-28 [1]) | Activity (SK-MEL-28 [2]) | ΔTm (Homo sapiens) [°C] | IC50 [3] [nM] | IC50 [5] [nM] | IC50 [6] [nM] | also measured
CN[C@@H](C)C(=O)N[C@@H](CNC(=O)c1cc(S(=O)(=O)F)ccc1OC)C(=O)N1CCC[C@H]1C(=O)N[C@@H]1CCc2ccccc21 | Dde | Tde | 6.2 | – | – | – | –
CN[C@@H](C)C(=O)N[C@@H](CNC(=O)c1cc(S(=O)(=O)F)ccc1OC)C(=O)N1CCC[C@H]1C(=O)N[C@@H]1CCc2c(F)cccc21 | – | – | – | > 1000 | – | – | –
CN[C@@H](C)C(=O)N[C@@H](CNC(=O)c1cccc(S(=O)(=O)F)c1)C(=O)N1CCC[C@H]1C(=O)NC1Cc2ccccc2C1 | – | – | – | > 2500 | > 1000 | > 1500 | IC50 [4]: > 1000 nM
CN[C@@H](C)C(=O)N[C@H](C(=O)N1CCC[C@H]1c1nc(C(=O)c2ccc(F)cc2)cs1)C1CCCCC1 [LCL-161] | Dde | Tde | 14.5 | – | 9 | – | IC50 [7]: 15 nM; ΔTm [8]: 12.6 °C
CN[C@@H](C)C(=O)N[C@@H](CNC(=O)c1cc(S(=O)(=O)F)ccc1OC)C(=O)N1CCCC[C@H]1C(=O)N[C@@H](Cc1ccccc1)C(N)=O | – | – | – | > 2500 | – | > 2000 | –
CN[C@@H](C)C(=O)N[C@@H](CNC(=O)c1cc(S(=O)(=O)O)ccc1OC)C(=O)N1CCC[C@H]1C(=O)N[C@@H]1CCc2ccccc21 | – | – | 4.7 | – | – | – | –
